Test results: patent US9029373B2, “Kinase inhibitors” (Chiesi Farmaceutici S.p.A., priority 2011, dated 2015)
Where a name gives a salt, the structure may show the parent alone.

Experiments:
p38alpha = target: T1, p38alpha (Homo sapiens, UniProt Q16539); assay: P38alpha enzyme inhibition assay (Alphascreen kinase activity assay); assay type: biochemical; settings: 100 pM p38alpha, 250 μM ATP, 2 hours pre-incubation at 25° C., ATF-2 fusion protein substrate; read-out: p38α inhibition (IC50 values)
T1 construct: purchased Invitrogen PV3304
T1 sequence (Q16539 whole entry, the tested form may be a part): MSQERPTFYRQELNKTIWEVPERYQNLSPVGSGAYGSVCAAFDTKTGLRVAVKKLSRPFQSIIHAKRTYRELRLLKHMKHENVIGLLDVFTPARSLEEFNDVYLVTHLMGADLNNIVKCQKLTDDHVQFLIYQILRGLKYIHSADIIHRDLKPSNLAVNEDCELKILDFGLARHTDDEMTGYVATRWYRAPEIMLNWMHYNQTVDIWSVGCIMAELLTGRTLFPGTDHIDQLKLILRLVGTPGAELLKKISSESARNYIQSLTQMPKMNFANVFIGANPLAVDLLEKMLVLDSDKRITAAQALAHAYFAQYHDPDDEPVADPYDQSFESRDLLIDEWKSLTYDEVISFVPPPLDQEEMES
Description: P38alpha Enzyme Inhibition Assay.
The inhibitory activity of compounds was determined using an Alphascreen® (Perkin Elmer) based kinase activity assay. Kinase reactions consisted of 25 mM HEPES pH 7.5, 10 mM MgCl2, 100 μM Na3VO4, 2 mM DTT, 0.05 mg/ml Tween 20, 100 pM p38alpha (Invitrogen, PV3304), 1% DMSO and 0.3 μg/ml ATF-2 fusion protein (New England Biolabs, 9224). Compounds were incubated under these conditions for 2 hours, at 25° C., prior to the initiation of the kinase activity by the addition of the 250 μM ATP. Reaction volumes were 20 uL. After 1 hr at 25° C. reactions were stopped by the adding 10 uL of 25 mM HEPES pH 7.5 containing 62.5 mM EDTA, 0.05% Triton X-100, 10% BSA and 0.83 ng/uL anti-phospho-ATF2 antibody (Abeam, ab28812). Detection was performed by measuring luminescence following the addition of Alphascreen Donor beads (Perkin Elmer 6765300) and Protein A Alphascreen Acceptor beads (Perkin Elmer 6760137), both at a final concentration of 20 ug/ml. IC50 values were determined from concentration-response curves.

[1] = test system: LPS-stimulated PBMC TNFα release; assay: LPS-stimulated PBMC TNFα release assay; assay type: cell-based; settings: human PBMCs, LPS 10 ng/ml, 18 h, TNFα by ELISA, at least three separate experiments, read-out: p38α inhibition (IC50 values), inhibition of TNFα release
Description: LPS-Stimulated PBMC TNFα Release Assay.
Peripheral Blood Mononuclear Cells (PBMCs) were isolated from healthy human volunteer blood using a standard density gradient centrifugation technique. Citrated blood was placed onto Histopaque™ and centrifuged. The PBMCs were removed from the density gradient interface and washed in phosphate buffered saline (PBS). The PBMCs were suspended in RPMI 1640 medium (without serum), dispensed into a 96-well plate and incubated at 37° C. for 3 h in a humidified incubator. After incubation, the medium was replaced (with medium containing 1% foetal bovine serum), and the plate incubated at 37° C., for 1 h, in the presence of test compound or the appropriate vehicle. LPS (10 ng/ml), or an appropriate vehicle control, was then added to the cells, and the plate returned to the incubator for 18 h. Cell-free supernatants were removed and assayed for TNFα levels using an ELISA kit from R&D Systems.
A dose response curve to each test compound was performed and the effect of compound in each experiment was expressed as a percentage inhibition of the control TNFα release. Dose response curves were plotted and compound potency (IC50) was determined. Compounds were tested in at least three separate experiments.

SMILES | IC50 (p38alpha) [nM] | IC50 [1] [nM]
COc1ccc(-n2nc(C(C)(C)C)cc2NC(=O)N[C@H]2CC[C@@H](Oc3ccc4nnc(C(C)C)n4c3)c3ccccc32)cc1 [Example 1, 1-(5-tert-Butyl-2-(4-methoxy-phenyl)-2H-pyrazol-3-yl)-3-[(1S,4R)-4-(3-isopropyl-[1,2,4]triazolo[4,3-a]pyridin-6-yloxy)-1,2,3,4-tetrahydro-naphthalen-1-yl]-urea] | < 10 | < 10
CC(C)c1nnc2ccc(O[C@@H]3CC[C@H](NC(=O)Nc4cc(C(C)(C)C)nn4C)c4ccccc43)cn12 [Example 2, 1-(5-tert-Butyl-2-methyl-2H-pyrazol-3-yl)-3-[(1S,4R)-4-(3-isopropyl-[1,2,4]triazolo[4,3-a]pyridin-6-yloxy)-1,2,3,4-tetrahydro-naphthalen-1-yl]-urea] | < 10 | < 10
CC(C)c1nnc2ccc(O[C@@H]3CC[C@H](NC(=O)Nc4cc(C(C)(C)C)nn4-c4cccc(SCCO)c4)c4ccccc43)cn12 [Example 3, 1-{5-tert-Butyl-2-[3-(2-hydroxyethylsulfanyl)-phenyl]-2H-pyrazol-3-yl}-3-[(1S,4R)-4-(3-isopropyl-[1,2,4]triazolo[4,3-a]pyridin-6-yloxy)-1,2,3,4-tetrahydro-naphthalen-1-yl]-urea] | < 10 | < 10
CC(C)c1nnc2ccc(O[C@@H]3CC[C@H](NC(=O)Nc4cc(C(C)(C)C)nn4-c4cccc(OCCO)c4)c4ccccc43)cn12 [Example 4, 1-{5-tert-Butyl-2-[3-(2-hydroxy-ethoxy)-phenyl]-2H-pyrazol-3-yl}-3-[(1S,4R)-4-(3-isopropyl-[1,2,4]triazolo[4,3-a]pyridin-6-yloxy)-1,2,3,4-tetrahydro-naphthalen-1-yl]-urea] | < 10 | < 10
CC(C)c1nnc2ccc(O[C@H]3CC[C@H](NC(=O)Nc4nnc(C(C)(C)C)o4)c4ccccc43)cn12 [Example 5, 1-(5-tert-Butyl-[1,3,4]oxadiazol-2-yl)-3-[(1S,4S)-4-(3-isopropyl-[1,2,4]triazolo[4,3-a]pyridin-6-yloxy)-1,2,3,4-tetrahydro-naphthalen-1-yl]-urea] | < 10 | 10 to 100
Cc1ccc(-n2cc(NC(=O)N[C@H]3CC[C@H](Oc4ccc5nnc(C(C)C)n5c4)c4ccccc43)cn2)cc1 [Example 6, 1-[(1S,4S)-4-(3-Isopropyl-[1,2,4]triazolo[4,3-a]pyridin-6-yloxy)-1,2,3,4-tetrahydro-naphthalen-1-yl]-3-(1-p-tolyl-1H-pyrazol-4-yl)-urea] | 100 to 500 | –
CC(C)c1nnc2ccc(O[C@H]3CC[C@H](NC(=O)Nc4ccc(Cl)c(C(F)(F)F)c4)c4ccccc43)cn12 [Example 7, 1-(4-Chloro-3-trifluoromethyl-phenyl)-3-[(1S,4S)-4-(3-isopropyl-[1,2,4]triazolo[4,3-a]pyridin-6-yloxy)-1,2,3,4-tetrahydro-naphthalen-1-yl]-urea] | < 10 | < 10
CC(C)c1nnc2ccc(O[C@H]3CC[C@H](NC(=O)Nc4nc(C(C)(C)C)no4)c4ccccc43)cn12 [Example 8, 1-(3-tert-Butyl-[1,2,4]oxadiazol-5-yl)-3-[(1S,4S)-4-(3-isopropyl-[1,2,4]triazolo[4,3-a]pyridin-6-yloxy)-1,2,3,4-tetrahydro-naphthalen-1-yl]-urea] | < 10 | < 10
CC(C)c1nnc2ccc(O[C@H]3CC[C@H](NC(=O)Nc4cnn(C(C)(C)C)c4)c4ccccc43)cn12 [Example 9, 1-(1-tert-Butyl-1H-pyrazol-4-yl)-3-[(1S,4S)-4-(3-isopropyl-[1,2,4]triazolo[4,3-a]pyridin-6-yloxy)-1,2,3,4-tetrahydro-naphthalen-1-yl]-urea] | < 10 | < 10
CC(C)c1nnc2ccc(O[C@@H]3CC[C@H](NC(=O)Nc4cc(C(C)(C)C)nn4CCO)c4ccccc43)cn12 [Example 10, 1-[5-tert-Butyl-2-(2-hydroxy-ethyl)-2H-pyrazol-3-yl]-3-[(1S,4R)-4-(3-isopropyl-[1,2,4]triazolo[4,3-a]pyridin-6-yloxy)-1,2,3,4-tetrahydro-naphthalen-1-yl]-urea] | – | 10 to 100
CC(C)c1nnc2ccc(O[C@@H]3CC[C@H](NC(=O)Nc4cc(C(C)(C)C)nn4-c4ccc(CO)cc4)c4ccccc43)cn12 [Example 11, 1-[5-tert-Butyl-2-(4-hydroxymethyl-phenyl)-2H-pyrazol-3-yl]-3-[(1S,4R)-4-(3-isopropyl-[1,2,4]triazolo[4,3-a]pyridin-6-yloxy)-1,2,3,4-tetrahydro-naphthalen-1-yl]-urea] | < 10 | < 10
CC(C)c1nnc2ccc(O[C@@H]3CC[C@H](NC(=O)Nc4cc(C(C)(C)C)nn4-c4cccc(CN5CCC(F)(F)CC5)c4)c4ccccc43)cn12 [Example 12, 1-{5-tert-Butyl-2-[3-(4,4-difluoro-piperidin-1-ylmethyl)-phenyl]-2H-pyrazol-3-yl}-3-[(1S,4R)-4-(3-isopropyl-[1,2,4]triazolo[4,3-a]pyridin-6-yloxy)-1,2,3,4-tetrahydro-naphthalen-1-yl]-urea] | < 10 | 10 to 100
CC(C)c1nnc2ccc(O[C@@H]3CC[C@H](NC(=O)Nc4cc(C(C)(C)C)nn4-c4ccc(OCCN5CCN(C)CC5)cc4)c4ccccc43)cn12 [Example 13, 1-(5-tert-Butyl-2-{4-[2-(4-methyl-piperazin-1-yl)-ethoxy]-phenyl}-2H-pyrazol-3-yl)-3-[(1S,4R)-4-(3-isopropyl-[1,2,4]triazolo[4,3-a]pyridin-6-yloxy)-1,2,3,4-tetrahydro-naphthalen-1-yl]-urea, formic acid salt] | – | 100 to 1000
CC(C)c1nnc2ccc(O[C@H]3CC[C@H](NC(=O)Nc4cc(C(C)(C)C)nn4-c4ccc(C#N)cc4)c4ccccc43)cn12 [Example 14, 1-[5-tert-Butyl-2-(4-cyano-phenyl)-2H-pyrazol-3-yl]-3-[(1S,4S)-4-(3-isopropyl-[1,2,4]triazolo[4,3-a]pyridin-6-yloxy)-1,2,3,4-tetrahydro-naphthalen-1-yl]-urea] | 10 to 100 | < 10
CC(C)c1nnc2ccc(O[C@@H]3CC[C@H](NC(=O)Nc4cc(C(C)(C)C)nn4C4CCNCC4)c4ccccc43)cn12 [Example 16, 1-(5-tert-Butyl-2-piperidin-4-yl-2H-pyrazol-3-yl)-3-[(1S,4R)-4-(3-isopropyl-[1,2,4]triazolo[4,3-a]pyridin-6-yloxy)-1,2,3,4-tetrahydro-naphthalen-1-yl]-urea] | < 10 | –
Cc1ccc(-n2nccc2NC(=O)N[C@H]2CC[C@@H](Oc3ccc4nnc(C(C)C)n4c3)c3ccccc32)cc1 [Example 20, 1-[(1S,4R)-4-(3-Isopropyl-[1,2,4]triazolo[4,3-a]pyridin-6-yloxy)-1,2,3,4-tetrahydro-naphthalen-1-yl]-3-(2-p-tolyl-2H-pyrazol-3-yl)-urea] | 100 to 500 | –
CC(C)c1nnc2ccc(O[C@@H]3CC[C@H](NC(=O)Nc4cnn(C(C)(C)C)c4)c4cc(F)ccc43)cn12 [Example 21, 1-(1-tert-Butyl-1H-pyrazol-4-yl)-3-[(1S,4R)-7-fluoro-4-(3-isopropyl-[1,2,4]triazolo[4,3-a]pyridin-6-yloxy)-1,2,3,4-tetrahydro-naphthalen-1-yl]-urea] | < 10 | –
CC(C)c1nnc2ccc(O[C@@H]3CC[C@H](NC(=O)Nc4cc(C(C)(C)C)nn4-c4ccc5cnn(CCN6CCOCC6)c5c4)c4ccccc43)cn12 [Example 24, 1-{5-tert-Butyl-2-[1-(2-morpholin-4-yl-ethyl)-1H-indazol-6-yl]-2H-pyrazol-3-yl}-3-[(1S,4R)-4-(3-isopropyl-[1,2,4]triazolo[4,3-a]pyridin-6-yloxy)-1,2,3,4-tetrahydro-naphthalen-1-yl]-urea] | < 10 | –
CC(C)c1nnc2ccc(O[C@@H]3CC[C@H](NC(=O)Nc4cc(C(C)(C)C)nn4-c4ccc5cn(CCN6CCOCC6)nc5c4)c4ccccc43)cn12 [Example 25, 1-{5-tert-Butyl-2-[2-(2-morpholin-4-yl-ethyl)-2H-indazol-6-yl]-2H-pyrazol-3-yl}-3-[(1S,4R)-4-(3-isopropyl-[1,2,4]triazolo[4,3-a]pyridin-6-yloxy)-1,2,3,4-tetrahydro-naphthalen-1-yl]-urea] | < 10 | –
